Patent publication US20250122183A1 (Pfizer Inc., priority 2023, published 2025)

Experiments:
Type in all cases: biochemical
[1] = target: KAT7+BRPF1+EAF6+ING5 4 protein complex (Homo sapiens (Human), UniProt O95251); assay: KAT7 BRPF1 assay (SAMDI-MS acetylation of H3 1-21 peptide); conditions: Morrison equation fit; replicate number in parentheses
[2] = target: KAT7+JADE1+EAF6+ING5 4 protein complex (Homo sapiens (Human), UniProt O95251); assay: KAT7 JADE1 assay (SAMDI-MS acetylation of H3 1-21 peptide); conditions: Morrison equation fit; replicate number in parentheses; read-out: KAT7 JADE1 Ki (nM) (replicate number)
[3] = target: KAT7+BRPF2+EAF6+ING5 4 protein complex (Homo sapiens (Human), UniProt O95251); assay: KAT7 BRPF2 assay (SAMDI-MS acetylation of H3 1-21 peptide); conditions: Morrison equation fit; replicate number in parentheses; read-out: KAT7 BRPF2 Ki (nM) (replicate number)
KAT8 Full length enzyme = KAT8 Full length enzyme (Homo sapiens (Human), UniProt Q9H7Z6); assay: KAT8 assay (SAMDI-MS acetylation of H3 1-21 peptide); conditions: Morrison equation fit; replicate number in parentheses; read-out: KAT8 Ki (nM) (replicate number)
Chain of KAT8 Full length enzyme (Q9H7Z6 whole entry): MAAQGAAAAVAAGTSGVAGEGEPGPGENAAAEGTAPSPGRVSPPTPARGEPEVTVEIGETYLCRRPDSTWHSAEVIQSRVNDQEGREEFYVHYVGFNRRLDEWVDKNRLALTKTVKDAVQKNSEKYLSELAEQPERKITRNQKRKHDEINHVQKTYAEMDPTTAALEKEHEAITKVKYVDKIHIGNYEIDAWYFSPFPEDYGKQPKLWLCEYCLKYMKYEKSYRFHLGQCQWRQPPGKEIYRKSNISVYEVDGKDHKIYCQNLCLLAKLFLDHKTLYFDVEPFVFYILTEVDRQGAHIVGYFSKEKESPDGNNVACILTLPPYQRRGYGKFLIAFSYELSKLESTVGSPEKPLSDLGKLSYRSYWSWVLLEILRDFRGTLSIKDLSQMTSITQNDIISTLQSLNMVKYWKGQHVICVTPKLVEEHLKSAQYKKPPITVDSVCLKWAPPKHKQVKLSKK

KAT5 Full length enzyme = KAT5 Full length enzyme (Homo sapiens (Human), UniProt Q92993); assay: KAT5 assay (SAMDI-MS acetylation of H4 1-21 peptide); conditions: Morrison equation fit; replicate number in parentheses; read-out: KAT5 Ki (nM) (replicate number)
Chain of KAT5 Full length enzyme (Q92993 whole entry): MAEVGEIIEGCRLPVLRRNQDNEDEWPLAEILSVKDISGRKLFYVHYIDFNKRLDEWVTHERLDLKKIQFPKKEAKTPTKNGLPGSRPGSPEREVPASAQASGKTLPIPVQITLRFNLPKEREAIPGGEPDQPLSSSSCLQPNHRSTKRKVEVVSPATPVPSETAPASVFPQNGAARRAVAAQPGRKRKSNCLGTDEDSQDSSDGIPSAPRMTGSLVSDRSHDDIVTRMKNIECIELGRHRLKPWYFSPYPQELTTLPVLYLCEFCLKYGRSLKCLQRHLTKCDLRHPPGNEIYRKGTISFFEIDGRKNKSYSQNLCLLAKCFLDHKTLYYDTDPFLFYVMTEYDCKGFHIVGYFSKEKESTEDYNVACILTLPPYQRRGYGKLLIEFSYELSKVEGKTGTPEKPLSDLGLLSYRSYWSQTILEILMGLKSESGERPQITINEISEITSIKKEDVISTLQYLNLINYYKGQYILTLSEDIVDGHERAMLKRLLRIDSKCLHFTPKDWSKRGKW

KAT6A Full length enzyme = KAT6A Full length enzyme (Homo sapiens (Human), UniProt Q92794); assay: KAT6A assay (SAMDI-MS acetylation of H3 1-21 peptide); conditions: Morrison equation fit; replicate number in parentheses; read-out: KAT6A Ki (nM) (replicate number)
Chain of KAT6A Full length enzyme (Q92794 other isoform, or with tags, fused parts or gaps): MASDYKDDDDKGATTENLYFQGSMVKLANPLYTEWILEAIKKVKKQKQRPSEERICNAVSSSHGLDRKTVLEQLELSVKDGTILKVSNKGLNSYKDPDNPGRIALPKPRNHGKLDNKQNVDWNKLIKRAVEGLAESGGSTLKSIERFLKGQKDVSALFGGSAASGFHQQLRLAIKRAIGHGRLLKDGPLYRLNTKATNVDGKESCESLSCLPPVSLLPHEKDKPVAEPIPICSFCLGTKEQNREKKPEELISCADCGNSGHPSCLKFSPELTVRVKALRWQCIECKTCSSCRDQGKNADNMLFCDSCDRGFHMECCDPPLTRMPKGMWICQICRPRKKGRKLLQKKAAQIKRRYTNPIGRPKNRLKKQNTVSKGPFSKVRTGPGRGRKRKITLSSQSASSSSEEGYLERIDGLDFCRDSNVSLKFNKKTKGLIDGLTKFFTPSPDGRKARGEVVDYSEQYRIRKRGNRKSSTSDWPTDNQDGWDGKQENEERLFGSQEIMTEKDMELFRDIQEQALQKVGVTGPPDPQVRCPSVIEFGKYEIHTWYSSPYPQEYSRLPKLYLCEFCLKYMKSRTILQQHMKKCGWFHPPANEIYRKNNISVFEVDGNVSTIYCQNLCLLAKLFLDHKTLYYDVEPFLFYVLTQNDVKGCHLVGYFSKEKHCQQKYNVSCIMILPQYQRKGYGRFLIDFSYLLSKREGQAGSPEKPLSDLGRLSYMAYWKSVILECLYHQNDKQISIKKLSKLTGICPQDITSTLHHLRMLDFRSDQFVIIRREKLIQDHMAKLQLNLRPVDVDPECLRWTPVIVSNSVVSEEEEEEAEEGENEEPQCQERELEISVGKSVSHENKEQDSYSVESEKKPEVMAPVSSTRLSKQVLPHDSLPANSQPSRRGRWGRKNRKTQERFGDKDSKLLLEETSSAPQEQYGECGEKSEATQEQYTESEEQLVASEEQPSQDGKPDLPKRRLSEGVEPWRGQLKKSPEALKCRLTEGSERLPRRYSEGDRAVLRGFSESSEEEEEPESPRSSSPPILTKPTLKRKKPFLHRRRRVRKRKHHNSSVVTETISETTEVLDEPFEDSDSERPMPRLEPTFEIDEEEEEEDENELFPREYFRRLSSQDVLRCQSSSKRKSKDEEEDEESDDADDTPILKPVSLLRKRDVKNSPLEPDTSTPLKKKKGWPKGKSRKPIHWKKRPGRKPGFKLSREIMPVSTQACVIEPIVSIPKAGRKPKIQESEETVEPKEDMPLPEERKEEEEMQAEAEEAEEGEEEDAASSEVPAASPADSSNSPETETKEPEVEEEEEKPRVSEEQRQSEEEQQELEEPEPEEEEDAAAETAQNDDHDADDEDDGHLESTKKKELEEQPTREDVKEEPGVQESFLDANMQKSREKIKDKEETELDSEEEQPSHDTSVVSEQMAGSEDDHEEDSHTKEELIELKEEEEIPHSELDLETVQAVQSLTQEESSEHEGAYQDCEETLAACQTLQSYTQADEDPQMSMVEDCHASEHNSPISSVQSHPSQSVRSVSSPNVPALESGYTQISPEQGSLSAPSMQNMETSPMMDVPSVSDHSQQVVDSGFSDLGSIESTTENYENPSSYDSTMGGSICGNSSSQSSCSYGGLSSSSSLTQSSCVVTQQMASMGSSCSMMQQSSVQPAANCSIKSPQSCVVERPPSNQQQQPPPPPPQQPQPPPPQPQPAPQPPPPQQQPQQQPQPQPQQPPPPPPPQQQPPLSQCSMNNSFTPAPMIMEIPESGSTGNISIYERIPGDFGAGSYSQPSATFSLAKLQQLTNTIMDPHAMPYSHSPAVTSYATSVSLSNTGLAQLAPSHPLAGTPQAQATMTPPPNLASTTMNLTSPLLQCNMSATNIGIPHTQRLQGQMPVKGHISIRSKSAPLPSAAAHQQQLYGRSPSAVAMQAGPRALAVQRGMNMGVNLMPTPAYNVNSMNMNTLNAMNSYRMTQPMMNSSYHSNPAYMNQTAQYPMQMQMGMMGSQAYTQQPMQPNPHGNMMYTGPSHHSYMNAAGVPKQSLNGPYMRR

Row | Structure (SMILES) | Ki [1] [nM] | Ki [2] [nM] | Ki [3] [nM] | Ki (KAT8 Full length enzyme) [nM] | Ki (KAT5 Full length enzyme) [nM] | Ki (KAT6A Full length enzyme) [nM]
1 | CCOc1cc(C)c(F)cc1S(=O)(=O)Nc1noc2cc(Nc3cc(C(C)C)[nH]n3)c(OC)cc12 [Example 79, 2-ethoxy-5-fluoro-N-(5-methoxy-6-{[5-(propan-2-yl)-1H-pyrazol-3-yl]amino}-1,2-benzoxazol-3-yl)-4-methylbenzene-1-sulfonamide] | 25.2 | 119 | 26.5 | 6570 | 692 | 5.1
2 | COc1cc2c(NS(=O)(=O)c3ccc(Cl)cc3OC)noc2cc1Nc1cc[nH]n1 [Example 27, 4-chloro-2-methoxy-N-{5-methoxy-6-[(1H-pyrazol-3-yl)amino]-1,2-benzoxazol-3-yl}benzene-1-sulfonamide] | 74.7 | 220 | 124 | 893 | 390 | 1.3
3 | COc1cc2c(NS(=O)(=O)c3c(OC)cc([C@H]4COCCO4)cc3OC)noc2cc1Nc1cc(C2CC2)[nH]n1 [Example 146] | 2.4 | 3.2 | 1.7 | 865 | 31.4 | 0.9
4 | COc1cc2c(NS(=O)(=O)c3c(OC)cccc3OC)noc2cc1Nc1n[nH]c(C)n1 [Example 36, 2,6-dimethoxy-N-{5-methoxy-6-[(5-methyl-1H-1,2,4-triazol-3-yl)amino]-1,2-benzoxazol-3-yl}benzene-1-sulfonamide] | 93 | 501 | 106 | 2990 | 1080 | 1
5 | COc1cc(Nc2cc3onc(NS(=O)(=O)c4c(OC)cccc4OC)c3cc2OC)n[nH]1 [Example 44, 2,6-dimethoxy-N-{5-methoxy-6-[(5-methoxy-1H-pyrazol-3-yl)amino]-1,2-benzoxazol-3-yl}benzene-1-sulfonamide] | 9.8 | 48.2 | 16.2 | > 16300 | 1000 | 3.4
6 | CCn1cnc(Nc2cc3onc(NS(=O)(=O)c4c(OC)cccc4OC)c3cc2OC)n1 [Example 41, N-{6-[(1-ethyl-1H-1,2,4-triazol-3-yl)amino]-5-methoxy-1,2-benzoxazol-3-yl}-2,6-dimethoxybenzene-1-sulfonamide] | 25.6 | 359 | 94.2 | > 16300 | 3390 | 6
7 | COc1cc2c(NS(=O)(=O)c3ccc(C)cc3OCC(F)F)noc2cc1Nc1cc[nH]n1 [Example 64, 2-(2,2-difluoroethoxy)-N-{5-methoxy-6-[(1H-pyrazol-3-yl)amino]-1,2-benzoxazol-3-yl}-4-methylbenzene-1-sulfonamide] | 146 | 136 | 144 | 550 | 48.1 | 0.2
8 | CCOc1cc(C)ccc1S(=O)(=O)Nc1noc2cc(Nc3cc[nH]n3)c(OC)cc12 [Example 29, 2-ethoxy-N-{5-methoxy-6-[(1H-pyrazol-3-yl)amino]-1,2-benzoxazol-3-yl}-4-methylbenzene-1-sulfonamide] | 40.5 | 182 | 49.1 | 1380 | 594 | 1
9 | CCc1cc(Nc2cc3onc(NS(=O)(=O)c4c(OC)cccc4OC)c3cc2OC)[nH]n1 [Example 02, N-{6-[(3-ethyl-1H-pyrazol-5-yl)amino]-5-methoxy-1,2-benzoxazol-3-yl}-2,6-dimethoxybenzene-1-sulfonamide] | 3.5 | 19.5 | 4.8 | 2270 | 305 | 1.1
10 | COc1ccccc1S(=O)(=O)Nc1noc2cc(Nc3cc[nH]n3)cc(OC)c12 [Example 09, 2-methoxy-N-{4-methoxy-6-[(1H-pyrazol-3-yl)amino]-1,2-benzoxazol-3-yl}benzene-1-sulfonamide] | 51.8 | 202 | 90.7 | 1190 | 642 | 0.8
11 | CCOc1cc(C)c(F)cc1S(=O)(=O)Nc1noc2cc(Nc3cc[nH]n3)c(OC)cc12 [Example 77, 2-ethoxy-5-fluoro-N-{5-methoxy-6-[(1H-pyrazol-3-yl)amino]-1,2-benzoxazol-3-yl}-4-methylbenzene-1-sulfonamide] | 76.1 | 213 | 162 | 2760 | 243 | 0.6
12 | COc1cccc(OC)c1S(=O)(=O)Nc1noc2cc(Nc3ncc[nH]3)cc(OC)c12 [Example 15, N-{6-[(1H-imidazol-2-yl)amino]-4-methoxy-1,2-benzoxazol-3-yl}-2,6-dimethoxybenzene-1-sulfonamide] | 67.8 | 256 | 100 | 1320 | 1330 | 1.2
13 | COc1cc2c(NS(=O)(=O)c3c(OC)cccc3OC)noc2cc1Nc1cc(C2CCNCC2)n[nH]1 [Example 56, 2,6-dimethoxy-N-(5-methoxy-6-{[3-(piperidin-4-yl)-1H-pyrazol-5-yl]amino}-1,2-benzoxazol-3-yl)benzene-1-sulfonamide] | 157 | 594 | 512 | 7220 | 22200 | 3
14 | COc1cc2c(NS(=O)(=O)c3c(OC)cccc3OC)noc2cc1Nc1ccn(C)n1 [Example 04, 2,6-Dimethoxy-N-{5-methoxy-6-[(1-methyl-1H-pyrazol-3-yl)amino]-1,2-benzoxazol-3-yl}benzene-1-sulfonamide] | 67.2 | 251 | 57.2 | 1230 | 367 | 0.7
15 | COc1cc2c(NS(=O)(=O)c3c(OC)cccc3OC)noc2cc1Nc1cc[nH]n1 [Example 03, 2,6-Dimethoxy-N-{5-methoxy-6-[(1H-pyrazol-3-yl)amino]-1,2-benzoxazol-3-yl}benzene-1-sulfonamide] | 40.6 | 105 | 43.6 | 861 | 138 | 0.5
16 | COc1cc2c(NS(=O)(=O)c3ccccc3OC)noc2cc1Nc1cc[nH]n1 [Example 22, 2-methoxy-N-{5-methoxy-6-[(1H-pyrazol-3-yl)amino]-1,2-benzoxazol-3-yl}benzene-1-sulfonamide] | 108 | 300 | 186 | 1700 | 488 | 0.9
17 | CCc1nc(Nc2cc3onc(NS(=O)(=O)c4c(OC)cccc4OC)c3cc2OC)n[nH]1 [Example 40, N-{6-[(5-ethyl-1H-1,2,4-triazol-3-yl)amino]-5-methoxy-1,2-benzoxazol-3-yl}-2,6-dimethoxybenzene-1-sulfonamide] | 49.1 | 526 | 156 | > 16300 | 4600 | 3.1
18 | COc1cc2c(NS(=O)(=O)c3ccccc3OC)noc2cc1Nc1cc(C)n[nH]1 [Example 06, 2-Methoxy-N-{5-methoxy-6-[(3-methyl-1H-pyrazol-5-yl)amino]-1,2-benzoxazol-3-yl}benzene-1-sulfonamide] | 47.1 | 148 | 50.5 | > 13000 | 300 | 0.8
19 | COc1cc2c(NS(=O)(=O)c3ccc(C)cc3OCC(F)F)noc2cc1Nc1cc(C(C)C)[nH]n1 [Example 62, 2-(2,2-difluoroethoxy)-N-(5-methoxy-6-{[5-(propan-2-yl)-1H-pyrazol-3-yl]amino}-1,2-benzoxazol-3-yl)-4-methylbenzene-1-sulfonamide] | 38.1 | 191 | 35.3 | 5340 | 750 | 4.9
20 | CCn1cc(Nc2cc3onc(NS(=O)(=O)c4c(OC)cccc4OC)c3cc2OC)nn1 [Example 42, N-{6-[(1-ethyl-1H-1,2,3-triazol-4-yl)amino]-5-methoxy-1,2-benzoxazol-3-yl}-2,6-dimethoxybenzene-1-sulfonamide] | 26.7 | 316 | 30.8 | > 16300 | 7120 | 10.7
21 | COc1cc2c(NS(=O)(=O)c3c(OC)cccc3OC)noc2cc1Nc1cc(C)n[nH]1 [Example 84, 2,6-dimethoxy-N-{5-methoxy-6-[(3-methyl-1H-pyrazol-5-yl)amino]-1,2-benzoxazol-3-yl}benzene-1-sulfonamide] | 12.2 | 50.6 | 10.1 | 2970 | 82.3 | 0.2
22 | COc1cc2c(NS(=O)(=O)c3c(OC)cccc3OC)noc2cc1Nc1cc(C2CC2)n[nH]1 [Example 47, N-{6-[(3-cyclopropyl-1H-pyrazol-5-yl)amino]-5-methoxy-1,2-benzoxazol-3-yl}-2,6-dimethoxybenzene-1-sulfonamide] | 1.9 | 5 | 2.2 | 1220 | 131 | 0.8
23 | COc1cc2c(NS(=O)(=O)c3cc(C)ccc3OC)noc2cc1Nc1cc[nH]n1 [Example 24, 2-methoxy-N-{5-methoxy-6-[(1H-pyrazol-3-yl)amino]-1,2-benzoxazol-3-yl}-5-methylbenzene-1-sulfonamide] | 88.5 | 285 | 182 | 440 | 236 | 0.9
